Test results taken from patent US7432227B2, “6-alkyl or alkenyl-4-aminopicolinates and their use as herbicides” (Dow AgroSciences LLC, priority 2003, dated 2008).

Columns and labels:
[1] = system: Cocklebur (Xanthium strumarium); assay: Postemergence herbicidal activity, Cocklebur; type: in vivo; details: post-emergence, 336 h, rate 250 ppm, visual score after 2 weeks, 0 = no injury, 100 = complete kill, read-out: Post-emergent % control XANST
Procedure: (§1) Seeds of the desired test plant species were planted in Grace-Sierra MetroMix® 306 planting mixture, which typically has a pH of 6.0 to 6.8 and an organic matter content of about 30 percent, in plastic pots with a surface area of 64 square centimeters. When required to ensure good germination and healthy plants, a fungicide treatment and/or other chemical or physical treatment was applied. The plants were grown for 7-21 days in a greenhouse with an approximate 15 hr photoperiod which was maintained at about 23-29° C. during the day and 22-28° C. during the night. Nutrients and water were added on a regular basis and supplemental lighting was provided with overhead metal halide 1000-Watt lamps as necessary. The plants were employed for testing when they reached the first or second true leaf stage. A weighed amount, determined by the highest rate to be tested, of each test compound was placed in a 20 mL glass vial and was dissolved in 4 mL of a 97:3 v/v (volume/volume) mixture of acetone and dimethyl sulfoxide (DMSO) to obtain concentrated stock solutions. […] The concentrated stock solutions obtained were diluted with an aqueous mixture containing acetone, water, isopropyl alcohol, DMSO, Atplus 411F crop oil concentrate, and Triton X-155 surfactant in a 48.5:39:10:1.5:1.0:0.02 v/v ratio to obtain spray solutions of known concentration. The solutions containing the highest concentration to be tested were prepared by diluting 2 mL aliquots of the stock solution with 13 mL of the mixture and lower concentrations were prepared by serial dilution of the stock solution. Approximately 1.5 mL aliquots of each solution of known concentration were sprayed evenly onto each of the test plant pots using a DeVilbiss atomizer driven by compressed air pressure of 2 to 4 psi (140 to 280 kilopascals) to obtain thorough coverage of each plant. Control plants were sprayed in the same manner with the aqueous mixture. In this test an application rate of 1 ppm results in the application of approximately 1 g/Ha. The treated plants and control plants were placed in a greenhouse as described above and watered by sub-irrigation to prevent wash-off of the test compounds. After 2 weeks the condition of the test plants as compared with that of the untreated plants was determined visually and scored on a scale of 0 to 100 percent where 0 corresponds to no injury and 100 corresponds to complete kill.

[2] = system: Lambsquarter (Chenopodium album); assay: Postemergence herbicidal activity, Lambsquarter; type: in vivo; details: post-emergence, 336 h, visual score after 2 weeks, 0 = no injury, 100 = complete kill, read-out: Post-emergent % control CHEAL; for pest or weed control at 250 ppm: rate 250 ppm
Procedure: as §1

[3] = system: Barnyardgrass (Echinochloa crus-galli); assay: Postemergence herbicidal activity, Barnyardgrass; type: in vivo; details: post-emergence, 336 h, visual score after 2 weeks, 0 = no injury, 100 = complete kill, read-out: Post-emergent % control ECHCG; for pest or weed control at 250 ppm: rate 250 ppm
Procedure: as §1

[4] = system: Giant Foxtail (Setaria faberi); assay: Postemergence herbicidal activity, Giant Foxtail; type: in vivo; details: post-emergence, 336 h, visual score after 2 weeks, 0 = no injury, 100 = complete kill, read-out: Post-emergent % control SETFA; for pest or weed control at 250 ppm: rate 250 ppm
Procedure: as §1

[5] = system: Pigweed (redroot) (Amaranthus retroflexus); assay: Postemergence herbicidal activity, Pigweed (redroot); type: in vivo; details: visual score after 2 weeks, 0 = no injury, 100 = complete kill
Procedure: as §1

[6] = system: Wheat(var.Merica) (Triticum aestivum); assay: Postemergence herbicidal activity, selectivity to wheat; type: in vivo; details: crop (wheat) selectivity, visual score after 2 weeks, 0 = no injury
Procedure: as §1, with “Control plants were sprayed in the same manner with the aqueous mixture. In this test an application rate of 1 ppm results in the application of approximately 1 g/Ha. The treated plants and control plants were placed in a greenhouse as described above and watered by sub-irrigation to prevent wash-off of the test compounds.” left out

[7] = system: Corn (#14 3377) (Zea mays); assay: Postemergence herbicidal activity, selectivity to corn; type: in vivo; details: crop (corn) selectivity, visual score after 2 weeks, 0 = no injury
Procedure: as §1

[8] = system: Lambsquarter (Chenopodium album); assay: Preemergence herbicidal activity, Lambsquarter; type: in vivo; details: pre-emergence, 504 h, visual score after 3 weeks, 100 = complete kill or no germination, read-out: Pre-emergent % control CHEAL; for pest or weed control at 280 ppm: rate 280 ppm
Excerpt: (§2) Seeds of the desired test plant species were planted in a soil matrix prepared by mixing a loam soil (43 percent silt, 19 percent clay, and 38 percent sand, with a pH of about 8.1 and an organic matter content of about 1.5 percent) and sand in a 70 to 30 ratio. The soil matrix was contained in plastic pots with a surface area of 113 square centimeters. When required to ensure good germination and healthy plants, a fungicide treatment and/or other chemical or physical treatment was applied. A weighed amount, determined by the highest rate to be tested, of each test compound was placed in a 20 mL glass vial and was dissolved in 4 mL of a 97:3 v/v (volume/volume) mixture of acetone and dimethyl sulfoxide to obtain concentrated stock solutions. […] The stock solutions obtained were diluted with a 99.9:0.1 mixture of water and Tween® […] surfactant to obtain application solutions of known concentration. The solutions containing the highest concentration to be tested were prepared by diluting 2 mL aliquots of the stock solution with 15 mL of the mixture and lower concentrations were prepared by serial dilution of the stock solution. A 2.5 mL aliquot of each solution of known concentration was sprayed evenly onto the soil surface (113 sq. cm) of each seeded pot using a Cornwall 5.0 mL glass syringe fitted with a TeeJet TN-3 hollow cone nozzle to obtain thorough coverage of the soil in each pot. Control pots were sprayed in the same manner with the aqueous mixture. The treated pots and control pots were placed in a greenhouse maintained with an approximate 15 hr photoperiod and temperatures of about 23-29° C. during the day and 22-28° C. during the night. Nutrients and water were added on a regular basis and supplemental lighting was provided with overhead metal halide 1000-Watt lamps as necessary. The water was added by top-irrigation. After 3 weeks the condition of the test plants that germinated and grew as compared with that of the untreated plants that germinated and grew was determined visually and scored on a scale of 0 to 100 percent where 0 corresponds to no injury and 100 corresponds to complete kill or no germination.

[9] = system: Ivyleaf Morningglory (Ipomoea hederacea); assay: Preemergence herbicidal activity, Ivyleaf Morningglory; type: in vivo; details: pre-emergence, 504 h, visual score after 3 weeks, 100 = complete kill or no germination, read-out: Pre-emergent % control IPOHE; for pest or weed control at 280 ppm: rate 280 ppm
Excerpt: as §2

[10] = system: Crabgrass(large) (Digitaria sanguinalis); assay: Preemergence herbicidal activity, Crabgrass(large); type: in vivo; details: pre-emergence, 504 h, visual score after 3 weeks, 100 = complete kill or no germination, read-out: Pre-emergent % control DIGSA; for pest or weed control at 280 ppm: rate 280 ppm
Excerpt: as §2

[11] = system: Giant Foxtail (Setaria faberi); assay: Preemergence herbicidal activity, Giant Foxtail; type: in vivo; details: pre-emergence, 504 h, visual score after 3 weeks, 100 = complete kill or no germination, read-out: Pre-emergent % control SETFA; for pest or weed control at 280 ppm: rate 280 ppm
Excerpt: as §2

Row | SMILES | pest or weed control at 250 ppm [1] [%] | pest or weed control at 250 ppm [2] [%] | pest or weed control at 250 ppm [3] [%] | pest or weed control at 250 ppm [4] [%] | Post-emergent % control AMARE ([5]; rate 250 ppm) [%] | Post-emergent % control TRZAS ([6]; rate 250 ppm) [%] | Post-emergent % control ZEAMX ([7]; rate 250 ppm) [%] | pest or weed control at 280 ppm [8] [%] | pest or weed control at 280 ppm [9] [%] | pest or weed control at 280 ppm [10] [%] | pest or weed control at 280 ppm [11] [%] | other results
1 | CCc1cc(N)c(Cl)c(C(=O)OC)n1 [Compound 4, Methyl 4-amino-3-chloro-6-ethylpyridine-2-carboxylate] | 95 | 100 | 0 | 0 | 98 | 0 | 0 | 98 | 100 | 0 | 0 | –
2 | CCc1cc(N)c(Cl)c(C(=O)O)n1 [Compound 6, 4-Amino-3-chloro-6-ethylpyridine-2-carboxylic acid] | 98 | 90 | 0 | 0 | 100 | 0 | 0 | 90 | 100 | 15 | 0 | melting point: 140 to 142 °C
3 | COCc1cc(N)c(Cl)c(C(=O)O)n1 [Compound 9, 4-Amino-3-chloro-6-(methoxymethyl)pyridine-2-carboxylic acid] | 80 | 80 | 0 | 0 | 90 | – | 0 | – | – | – | – | pest or weed control at 560 ppm ([8]; rate 560 ppm): 90%; pest or weed control at 560 ppm ([9]; rate 560 ppm): 50%; pest or weed control at 560 ppm ([10]; rate 560 ppm): 10%; pest or weed control at 560 ppm ([11]; rate 560 ppm): 10%
4 | COC(=O)c1nc(C)cc(N)c1Cl [Compound 13, Methyl 4-amino-3-chloro-6-methylpyridine-2-carboxylate] | – | – | – | – | – | – | – | – | – | – | – | pest or weed control at 254 ppm ([2]; rate 254 ppm): 70%; pest or weed control at 254 ppm ([3]; rate 254 ppm): 0%; pest or weed control at 254 ppm ([4]; rate 254 ppm): 0%; Post-emergent % control AMARE ([5]; rate 254 ppm): 90%; Post-emergent % control TRZAS ([6]; rate 254 ppm): 0%; Post-emergent % control ZEAMX ([7]; rate 254 ppm): 0%; pest or weed control at 573 ppm ([8]; rate 573 ppm): 100%; pest or weed control at 573 ppm ([9]; rate 573 ppm): 90%; pest or weed control at 573 ppm ([10]; rate 573 ppm): 0%; pest or weed control at 573 ppm ([11]; rate 573 ppm): 0%
